Source: patent US8658668B2, “PI3 kinase/mTOR dual inhibitor” (Eli Lilly and Company, priority 2011, dated 2014)

Assays:
pS473 AKT = assay: In vivo target inhibition in U87MG tumors, pS473 AKT; conditions: Mus musculus, U-87 MG; for inhibition at 0.5 mg/kg: 0.5 mg/kg oral; for inhibition at 1.5 mg/kg: 1.5 mg/kg oral; for inhibition at 3 mg/kg: 3 mg/kg oral; for inhibition at 6 mg/kg: 6 mg/kg oral; for inhibition at 10 mg/kg: 10 mg/kg oral; for inhibition at 12 mg/kg: 12 mg/kg oral
Method: Implant U87MG human glioblastoma cells (5×10^6) subcutaneously into the flank of athymic nude mice in 0.2 mL of matrigel. Ten days post-implantation, dose mice orally according to a time course, single dose/single time point, or dose response protocol for the determination of TMED50 (threshold minimum effective dose). Flash freeze tumors at harvest and collect blood for the determination of parent compound plasma exposure and the calculation of TMEC50 (threshold minimum effective concentration) in the case of dose response studies. Homogenize tumors in 500 μL of XY Lysis Buffer (10 μg/mL Leupeptin, 10 μg/mL Trypsin-Chymotrypsin Inhibitor, 10 μg/mL Tosyl phenyl-alanyl chloromethyl ketone, 10 μg/mL Aprotinin, 60 mM Beta-Glycerol Phosphate, 1% Triton X100, 25 mM Tris pH 7.5, 2.5 mM Pyrophosphate, 150 mM NaCl, 2 mM p-tosyl-L-arginine methyl ester, 15 mM para-nitrophenyl phosphate, 5 mM benzamidine, 1 mM sodium vanadate, 10 mM sodium fluoride, 50 μg/mL phenyl-methane sulfonyl fluoride, 1 mM 1,4-dithiothreitol (DTT), 15 mM EDTA pH 8.0, 5 mM EGTA pH 8.0, 1 μM Microcystin, 1 μM Okadaic Acid, and 1 Roche Complete protease inhibitor mini-tablet per 10 mL) using RNase Free Pellet Pestle (Kimble-Kontes). Aliquot lysates and either assay immediately or store at −80° C. for later testing. Use the multiplex format of Meso Scale Discovery (Gaithersburg, Md.) ELISA technology and measure in vivo target inhibition of PI3K and mTOR to assess effects on phosphorylation of the threonine 308 site of AKT, a downstream effector of PI3K; phosphorylation on the threonine 389 site of p70 S6K and on the serine 240/244 site of S6RP, downstream effectors of mTORC1; phosphorylation of the serine 473 site of AKT, a downstream effector of mTORC2. Add 20 μg of lysate to carbon electrode containing 96-well plates pre-spotted with the appropriate capture antibodies. Probe the protein of interest using a ruthenium labeled detection antibody. Pass current over the electrode in the presence of read buffer containing the co-reactant TPA, and quantitate and record the light generated by electro-chemiluminescence with the MSD Sector 6000 instrument. Calculate percent inhibitions relative to the vehicle control group and perform ANOVA analysis using the JMP software package for the determination of statistical significance.

[1] = system: LXFA 1041 human tumor xenograft cells; assay: Oncotest tumor clonogenic assay, LXFA 1041; assay type: cell-based; conditions: colony formation, NSCLC LXFA 1041, adeno carcinoma, md, read-out: Absolute IC50
[2] = system: PRXF DU145 human tumor xenograft cells; assay: Oncotest tumor clonogenic assay, PRXF DU145; assay type: cell-based; conditions: DU-145, colony formation, Prostate PRXF DU145, adeno carcinoma, ud, read-out: Absolute IC50
DNA-PK = DNA-PK (Homo sapiens, UniProt P78527); assay: DNA-PK Z'LYTE in vitro enzyme assay; assay type: biochemical; conditions: 25.0 micromolar ATP; read-out: absolute IC50
From the text: Use the Z'LYTE® kinase assay format (Invitrogen) to determine IC50 values against DNA-PK for a compound. This is a fluorescence based, coupled enzyme assay format based on sensitivity of phosphorylated vs. nonphosphorylated dual labeled peptide substrate (Coumerin on amino terminus, Fluorescein on carboxy terminus) to proteolysis. Use the Fluorescence Resonance Energy Transfer (FRET) ratio to monitor DNA-PK activity where phosphorylation of the peptide protects the peptide from proteolytic cleavage and the FRET of the substrate is maintained. Perform the kinase reaction using 10 microliter reaction volume in a Corning®, low volume NBS, black 384 well plate (Corning® #3676). […] Read the plate on a fluorescence plate reader with 400 nm wavelength excitation filter and emission filters of 445 and 520 nm Use the signal measured with 445 nm filter (specific to Coumarin) over the signal measured with 520 filter (specific to fluorescein) to calculate the FRET ratio. […]

[3] = system: MEXF 989 human tumor xenograft cells; assay: Oncotest tumor clonogenic assay, MEXF 989; assay type: cell-based; conditions: colony formation, Melanoma MEXF 989, amelanotic melanoma, md, read-out: Absolute IC50
[4] = system: LXFA 629 human tumor xenograft cells; assay: Oncotest tumor clonogenic assay, LXFA 629; assay type: cell-based; conditions: colony formation, NSCLC LXFA 629, adeno carcinoma, pd, read-out: Absolute IC50
[5] = system: LXFE 1422 human tumor xenograft cells; assay: Oncotest tumor clonogenic assay, LXFE 1422; assay type: cell-based; conditions: colony formation, NSCLC LXFE 1422, squamous cell carcinoma, ud, read-out: Absolute IC50

CO[C@@H](C)Cn1c(=O)n(C)c2cnc3ccc(-c4cncc(C(C)(C)O)c4)cc3c21 [Example 1, 8-[5-(1-Hydroxy-1-methylethyl)pyridin-3-yl]-1-[(2S)-2-methoxypropyl]-3-methyl-1,3-dihydro-2H-imidazo[4,5-c]quinolin-2-one]
inhibition at 0.5 mg/kg (pS473 AKT; 0.5 hr post dose): -9%
inhibition at 0.5 mg/kg (pS473 AKT; 4 hr post dose): -28%
inhibition at 1.5 mg/kg (pS473 AKT; 0.5 hr post dose): 34%
inhibition at 1.5 mg/kg (pS473 AKT; 4 hr post dose): -12%
inhibition at 3 mg/kg (pS473 AKT; 0.25 hr post dose): 23%
inhibition at 3 mg/kg (pS473 AKT; 0.5 hr post dose): 63%
inhibition at 3 mg/kg (pS473 AKT; 1 hr post dose): 12%
inhibition at 3 mg/kg (pS473 AKT; 3 hr post dose): -7%
inhibition at 3 mg/kg (pS473 AKT; 4 hr post dose): -3%
inhibition at 6 mg/kg (pS473 AKT; 0.25 hr post dose): 63%
inhibition at 6 mg/kg (pS473 AKT; 0.5 hr post dose): 77%
inhibition at 6 mg/kg (pS473 AKT; 1 hr post dose): 67%
inhibition at 6 mg/kg (pS473 AKT; 2 hr post dose): 51%
inhibition at 6 mg/kg (pS473 AKT; 4 hr post dose): -5%
inhibition at 6 mg/kg (pS473 AKT; 6 hr post dose): -8%
inhibition at 6 mg/kg (pS473 AKT; 12 hr post dose): -6%
inhibition at 10 mg/kg (pS473 AKT; 0.5 hr post dose): 90%
inhibition at 10 mg/kg (pS473 AKT; 1 hr post dose): 73%
inhibition at 10 mg/kg (pS473 AKT; 2 hr post dose): 66%
inhibition at 10 mg/kg (pS473 AKT; 4 hr post dose): 56%
inhibition at 10 mg/kg (pS473 AKT; 8 hr post dose): 13%
inhibition at 12 mg/kg (pS473 AKT; 0.5 hr post dose): 91%
inhibition at 12 mg/kg (pS473 AKT; 4 hr post dose): 44%
IC50 [1]: 205 nM
IC50 [2]: 269 nM
IC50 (DNA-PK): 4.24 nM
IC50 [3]: 185 nM
IC50 [4]: 26 nM
IC50 [5]: 231 nM
